Biological target: MAPK14 (human) (UniProt Q16539)
Experiment: Inhibition of MAPK14 Kinase Activity

Sequence of MAPK14 (human) (Q16539 whole entry, looked up): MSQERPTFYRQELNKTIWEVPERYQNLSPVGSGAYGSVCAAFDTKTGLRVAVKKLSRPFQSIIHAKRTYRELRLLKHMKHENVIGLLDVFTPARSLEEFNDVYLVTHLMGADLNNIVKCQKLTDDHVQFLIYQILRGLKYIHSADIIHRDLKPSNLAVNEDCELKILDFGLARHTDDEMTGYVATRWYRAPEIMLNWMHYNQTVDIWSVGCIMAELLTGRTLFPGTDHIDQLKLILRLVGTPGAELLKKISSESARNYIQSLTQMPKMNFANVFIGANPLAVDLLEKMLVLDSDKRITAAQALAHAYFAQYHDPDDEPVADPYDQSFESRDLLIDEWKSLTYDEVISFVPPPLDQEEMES

IC50, > 20 µM:
CS(=O)(=O)Nc1ccc(-c2cnc3cccc(Nc4ccc(Cl)cn4)c3c2)cc1
CC(=O)Nc1ccc(-c2cnc3ccc4ccncc4c3c2)cc1
CC(C)(C)NS(=O)(=O)c1ccc(-c2cnc3cccc(Nc4ccccn4)c3c2)cc1
CS(=O)(=O)Nc1ccc(-c2cnc3cccc(-c4cccnc4)c3c2)cc1
c1ccc(-c2cnc3ccc4ccncc4c3c2)cc1
CS(=O)(=O)Nc1ccc(-c2cnc3ccc4ccncc4c3c2)cc1
Nc1ccc(-c2cnc3ccc4ccncc4c3c2)cc1
CS(=O)(=O)Nc1ccc(-c2cnc3cccc(Nc4ccccn4)c3c2)cc1
CC(C)(C)NS(=O)(=O)c1ccc(-c2cnc3cccc(Nc4ccc(Cl)cn4)c3c2)cc1
CS(=O)(=O)Nc1ccc(-c2cnc3cccc(Nc4ncccn4)c3c2)cc1
Oc1ccc(-c2cnc3ccc4ccncc4c3c2)cc1
CS(=O)(=O)N(c1ccc(-c2cnc3ccc4ccncc4c3c2)cc1)S(C)(=O)=O
CS(=O)(=O)Nc1ccc(-c2cnc3cccc(-c4ccncc4)c3c2)cc1

Reference: the Kinase Knowledgebase extract (Sharma et al. 2016)
